Source: PMC5339036 (Angewandte Chemie (International ed. in English), 2017)
Where a name gives a salt, the structure may show the parent alone. One block for each molecule: values may come before it.

Experiments:
[1] = test system: human non-small cell lung A549
[2] = cancer cell line cytotoxicity assay; conditions: human, A549 cells (non-small cell lung cancer cell line)
[3] = test system: axolotl (Ambystoma mexicanum) embryo tail regeneration
Hsp90α = Hsp90α (Homo sapiens, UniProt P07900); assay: standard Hsp90α inhibition; assay type: binding
[4] = second generation clinical analogue; cited from earlier work
[5] = second generation clinical analogue; cited from earlier work; remark: listed apart in the source

IC50 [1]: > 50 µM
Molecule: 17-O-demethyl-reblastatin

Molecule: COC1=C2C[C@@H](C)C[C@H](OC)[C@H](O)[C@@H](C)/C=C(\C)[C@H](OC(N)=O)[C@@H](OC)/C=C\C=C(/C)C(=O)NC(=CC1=O)C2=O [Gdm, Geldanamycin]
IC50 [2]: 0.001 µM | dose-response: observation at the highest dose ([3]; 10 μM, axolotl embryos): developmental abnormalities and toxicity | axolotls dead at day 7 ([3]; axolotl (Ambystoma mexicanum), in vivo, 7 day): 3

IC50 (Hsp90α): 0.005 to 0.03 µM
Molecule: COc1c(O)cc2cc1C[C@@H](C)C[C@H](OC)[C@H](O)[C@@H](C)/C=C(\C)[C@H](OC(N)=O)[C@@H](OC)CC/C=C(\C)C(=O)N2 [reblastatin]
IC50 [2]: 0.7 µM

Molecule: C=CCNc1c(O)cc2c(O)c1C[C@@H](C)C[C@H](OC)[C@H](O)[C@@H](C)/C=C(\C)[C@H](OC(N)=O)[C@@H](OC)/C=C\C=C(/C)C(=O)N2 [retaspimycin hydrochloride/IPI-504, retaspimycin hydrochloride]
hepatotoxicity relative to first generation analogues [4]: reduced hepatotoxicity | solubility relative to first generation analogues [5]: improved solubility
